Results from US20090018111A1, “Novel Antimicrobial Medicament” (priority 2004, published 2009).
Where two headings read alike, the source gives them in different places.

Key:
[1] = test system: S. aureus SP-7928 (homo-MRSA); experiment: Sensitivity test (agar dilution); type: cell-based, Staphylococcus aureus; conditions: Staphylococcus aureus, MRSA, S. aureus SP-7928 (homo-MRSA)
Method in brief: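 Under the Japan Chemotherapeutic Society protocol, MIC was recorded as the lowest agar concentration, in twofold dilutions in MHA, preventing growth of about 10^6 CFU/ml inocula. FIC indices were derived for drug pairs.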

[2] = test system: 18 bacteria (27 standard strains); experiment: Sensitivity test, combination effect over the standard strains; type: cell-based; conditions: in combination with compound 1, standard strains
Method: The antibacterial activities were tested against various 18 bacteria (27 standard strains) which are representative bacteria caused clinically infectious disease (Staphylococcus aureus 3 strains, Staphylococcus epidermidis 1 strain, Micrococcus luteus 1 strain, Streptococcus pyogenes 1 strain, Enterococcus faecalis 1 strain, Enterococcus faecium 1 strain, Bacillus subtilis 1 strain, Escherichia coli 3 strains, Klebsiella pneumoniae 1 strain, Proteus mirabilis 1 strain, Proteus vulgaris 2 strains, Pseudomonas aeruginosa 3 strains, Serratia marcescens 2 strains, Enterobacter aerogenes 1 strain, Stenotrophomonas maltophilia 1 strain, Enterobacter cloacae 1 strain, Citrobacter freundii 1 strain, Moraxella catarrhalis 2 strains).
According to the standard method of Japan Chemotherapeutic Society (Chemotherapy, vol. […], p 76-79 (1981)) the test was carried out using the agar dilution method. After dissolving test samples in distilled water, agar medium containing the test samples was prepared in such a manner that the final concentration became twice serial dilution by pouring serially diluted combination drug solution or a single drug solution into agar medium. As agar medium was used Mueller Hinton Agar medium (MHA). Then, each strain was cultivated over night at 37° C. in an incubator and suspended in buffered saline solution with gelatin (BSG) in the concentration of about 10^6 CFU/ml. The suspension (about 5 μl) containing test strains was inoculated to the medium containing the test samples by Micro Planter.
When the sample is subjected to sensitivity test, this mixed solution was diluted by twice serial dilution method.
FIC index based on MIC value was calculated. […] Namely, when FIC index calculated by the following formula is equal or less than 1, the enhanced effect of the combination drug in said ratio is considered as positive. When FIC index is over 1, the enhanced effect of the combination drug in said ratio is considered as negative.
Formula of FIC index: FIC index=(MIC of Drug A in combination/MIC of Drug A alone)+(MIC of Drug B in combination/MIC of Drug B alone) N.C. in tables means being not calculated.

[3] = drug alone, read-out: MIC alone

SMILES	MIC ([1]; Concomitant (DRPM:SM = 1:1), read-out: MIC concomitant) [µg/mL]	MIC [1, 3] [µg/mL]	combination effect [2]	MIC ([1]; Concomitant (PAPM:SM = 1:1), read-out: MIC concomitant) [µg/mL]	MIC ([1]; Concomitant (PIPC:SM = 1:1), read-out: MIC concomitant) [µg/mL]
C[C@@H](O)[C@H]1C(=O)N2C(C(=O)O)=C(S[C@@H]3CN[C@H](CNS(N)(=O)=O)C3)[C@H](C)[C@H]12 [DRPM, doripenem]	1	32	the combination effect was recognized		
CC(=N)N1CC[C@H](SC2=C(C(=O)O)N3C(=O)[C@H]([C@@H](C)O)[C@H]3C2)C1 [PAPM, panipenem]		> 32	the combination effect was recognized	2	
CCN1CCN(C(=O)N[C@@H](C(=O)N[C@@H]2C(=O)N3[C@@H]2SC(C)(C)[C@@H]3C(=O)O)c2ccccc2)C(=O)C1=O [PIPC, piperacillin]		> 32	antagonism was recognized		1
